Assays:
[1] = biological target: human C5a receptor (C5aR) (Homo sapiens (Human), UniProt P21730); assay: Inhibition of C5a-C5aR binding (biotinylated human C5a, U937/C5aR cells, FACS)
Description: U937 cells were originally obtained from the American Type Culture Collection (ATCC) and transfected with human C5a receptor (C5aR). U937/C5aR cells were cultured at 37° C., 5% CO2 in RPMI1640 (Gibco) supplemented with 10% FBS (Gibco) and 350 µg/ml Geneticin (Gibco) and passaged every 3 days to maintain the density range from […] to 2×10^6 cells/ml.
Human C5a biotinylation was performed according to the procedure provided by manufacturer (Thermo Scientific, A39257). 10 mM solution of Sulfo-NHS-LC-Biotin was prepared by adding 180μl ultrapure H2O to the 1 mg vial immediately. 12 μl 10 mM biotin reagent was added to […] human C5a solution, gently pipetted for 3 seconds, and incubated on ice for 2 hours. Amicon ultra-0.5 centrifuge filter device (Millipore, UFC5003BK) was pre-rinsed with Milli-Q H2O, centrifuged at 14000 g for 5 min immediately before use. Up to […] sample (diluted by PBS) was added to the device and capped. The device was spinned at 14000 g for approximately 5 min. 250 μl PBS was added to the filter device, spinned at 14000 g for 5 min, and repeatedly washed 6 times. The filter device was separated from the microcentrifuge tube and placed upside down in a clean microcentrifuge tube, spinned for 2 min at 1000 g to transfer the concentrated sample from the device to the tube.
U937/C5aR cells were collected and washed twice by PBS, cells were suspended in PBS+0.1% BSA buffer at the density of 3×10^6 cells/ml. 100 μl cell suspension was added to a 96 well microplate. 50 μl compound diluted in assay buffer and 50 μl biotinylated ligand human C5a (30 nM) were added to corresponding wells in order and the plate was incubated on ice for 120 min and then centrifuged at 1000 rpm for 3-5 min at 4° C. Supernatant was removed and cells were washed by pre-cold PBS twice. 100 μl FITC conjugated streptavidin was added to cells, incubated on ice for another 30 min, and then centrifuged at 1000 rpm for 3-5 min at 4° C. Supernatant was removed and cells were washed by pre-cold PBS twice. 150 μl PBS was added to suspend the cells and signals were detected by FACS (Beckman, Cytoflex).

C5aR = C5aR (Homo sapiens (Human), UniProt P21730); assay: Calcium mobilization (U937/C5aR or HEK293/C5aR cells, FLIPR); assay type: cell-based; details: agonist human C5a at EC80, FLIPR
Outline: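 U937 or HEK293 cells expressing human C5aR, plated overnight, then preincubated 60 min with compound. After Fluo-4 Direct dye loading (50 min at 37 °C, 10 min at room temperature), intracellular calcium rise on FLIPR was triggered by human C5a agonist at EC80.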

Sequence of human C5a receptor (C5aR) (P21730 whole entry): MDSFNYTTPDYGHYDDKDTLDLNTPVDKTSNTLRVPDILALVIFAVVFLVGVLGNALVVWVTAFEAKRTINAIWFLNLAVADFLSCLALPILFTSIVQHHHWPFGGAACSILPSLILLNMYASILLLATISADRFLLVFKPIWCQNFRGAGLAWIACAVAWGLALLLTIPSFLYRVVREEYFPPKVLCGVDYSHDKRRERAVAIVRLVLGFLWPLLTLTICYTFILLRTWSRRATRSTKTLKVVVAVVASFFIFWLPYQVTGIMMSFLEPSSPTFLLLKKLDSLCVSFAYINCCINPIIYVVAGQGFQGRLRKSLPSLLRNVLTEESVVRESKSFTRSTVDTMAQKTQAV
Sequence of C5aR (P21730 whole entry): as above

Row | SMILES | IC50 [1] [nM] | IC50 (C5aR) [nM]
1 | Cc1cccc(F)c1C(=O)N1[C@@H]2CCC[C@@H]2C[C@H](C(=O)Nc2ccc(F)c(C(F)(F)F)c2)[C@@H]1c1ccc(NC2CCCC2)cc1 (relative stereo) [Compound 61, cis-2-(4-(cyclopentylamino)phenyl)-N-(4-fluoro-3-(trifluoromethyl)phenyl)-1-(2-fluoro-6-methylbenzoyl)octahydro-1H-cyclopenta[b]pyridine-3-carboxamide] | 2000 to 5000 | 2000 to 10000
2 | Cc1cccc(F)c1C(=O)N1[C@@H]2CCC[C@@H]2C[C@H](C(=O)Nc2ccc(F)c(F)c2)[C@@H]1c1ccc(NC2CCCC2)cc1 (relative stereo) [Compound 65, cis-2-(4-(cyclopentylamino)phenyl)-N-(3,4-difluorophenyl)-1-(2-fluoro-6-methylbenzoyl)octahydro-1H-cyclopenta[b]pyridine-3-carboxamide] | 50 to 500 | 50 to 500
3 | Cc1ccc(NC(=O)C2C[C@@H]3CCC[C@@H]3N(C(=O)c3c(C)cccc3F)C2c2ccc(NC3CCCC3)cc2)cc1P(C)(C)=O (relative stereo) [Compound 76, cis-2-(4-(cyclopentylamino)phenyl)-N-(3-(dimethylphosphoryl)-4-methylphenyl)-1-(2-fluoro-6-methylbenzoyl)octahydro-1H-cyclopenta[b]pyridine-3-carboxamide] | 2000 to 5000 | 2000 to 10000
4 | Cc1cccc(F)c1C(=O)N1C2CCC[C@@H]2C[C@H](C(=O)Nc2ccnc(C(F)(F)F)c2)[C@@H]1c1ccc(NC2CCCC2)cc1 (relative stereo) [Compound 79, cis-2-(4-(cyclopentylamino)phenyl)-1-(2-fluoro-6-methylbenzoyl)-N-(2-(trifluoromethyl)pyridin-4-yl)octahydro-1H-cyclopenta[b]pyridine-3-carboxamide] | 2000 to 5000 | 2000 to 10000
5 | Cc1ccc(NC(=O)C2C[C@H]3CCC[C@H]3N(C(=O)c3cn(C)cn3)C2c2ccc(NC3CCCC3)cc2)cc1C(F)(F)F (relative stereo) [Compound 113, cis-2-(4-(cyclopentylamino)phenyl)-1-(1-methyl-1H-imidazole-4-carbonyl)-N-(4-methyl-3-(trifluoromethyl)phenyl)octahydro-1H-cyclopenta[b]pyridine-3-carboxamide] | 2000 to 5000 | > 10000
6 | Cc1cccc(F)c1C(=O)N1C2COC[C@@H]2C[C@H](C(=O)Nc2ccccc2)[C@@H]1c1ccc(NC2CCOCC2)cc1 (relative stereo) [Compound 129, cis-1-(2-fluoro-6-methylbenzoyl)-N-phenyl-2-(4-((tetrahydro-2H-pyran-4-yl)amino)phenyl)octahydrofuro[3,4-b]pyridine-3-carboxamide] | 2000 to 5000 | 2000 to 10000
7 | Cc1cccc(F)c1C(=O)N1C(c2ccc(NC3CCCC3)cc2)C(C(=O)Nc2ccc3c(c2)CCNC3)C[C@@H]2CCC[C@@H]21 (relative stereo) [Compound 184, cis-2-(4-(cyclopentylamino)phenyl)-1-(2-fluoro-6-methylbenzoyl)-N-(1,2,3,4-tetrahydroisoquinolin-6-yl)octahydro-1H-cyclopenta[b]pyridine-3-carboxamide] | 2000 to 5000 | 2000 to 10000
8 | Cc1cccc(F)c1C(=O)N1C(c2ccc(N(C)C3CCCC3)cc2)C(C(=O)Nc2ccc3c(c2)CCN(C)C3)C[C@@H]2CCC[C@@H]21 (relative stereo) [Compound 201, cis-2-(4-(cyclopentyl(methyl)amino)phenyl)-1-(2-fluoro-6-methylbenzoyl)-N-(2-methyl-1,2,3,4-tetrahydroisoquinolin-6-yl)octahydro-1H-cyclopenta[b]pyridine-3-carboxamide] | > 5000 | 2000 to 10000
9 | Cc1ccc(NC(=O)[C@H]2CCCN(c3ccnc(Cl)n3)[C@H]2c2ccc(NC3CCCC3)cc2)cc1C(F)(F)F [Compound 2, (2R,3S)-1-(2-chloropyrimidin-4-yl)-2-(4-(cyclopentylamino)phenyl)-N-(4-methyl-3-(trifluoromethyl)phenyl)piperidine-3-carboxamide] | 2000 to 5000 | 2000 to 10000
10 | Cc1ccc(NC(=O)[C@H]2CCCN(c3ccncn3)[C@H]2c2ccc(NC3CCCC3)cc2)cc1C(F)(F)F [Compound 4, (2R,3S)-2-(4-(cyclopentylamino)phenyl)-N-(4-methyl-3-(trifluoromethyl)phenyl)-1-(pyrimidin-4-yl)piperidine-3-carboxamide] | 2000 to 5000 | 2000 to 10000
11 | Cc1ccc(NC(=O)[C@H]2CCCN(c3nccc4cccnc34)[C@H]2c2ccc(NC3CCCC3)cc2)cc1C(F)(F)F [Compound 6, (2R,3S)-2-(4-(cyclopentylamino)phenyl)-N-(4-methyl-3-(trifluoromethyl)phenyl)-1-(1,7-naphthyridin-8-yl)piperidine-3-carboxamide] | 500 to 2000 | 2000 to 10000
12 | Cc1ccc(NC(=O)[C@@H]2CCCN(c3ncnc4cccnc34)[C@H]2c2ccc(NC3CCCC3)cc2)cc1C(F)(F)F [Compound 7, (2R,3R)-2-(4-(cyclopentylamino)phenyl)-N-(4-methyl-3-(trifluoromethyl)phenyl)-1-(pyrido[3,2-d]pyrimidin-4-yl)piperidine-3-carboxamide] | 2000 to 5000 | 2000 to 10000
13 | Cc1ccc(NC(=O)[C@H]2CCCN(S(=O)(=O)c3c(C)noc3C)[C@H]2c2ccc(NC3CCCC3)cc2)cc1C(F)(F)F [Compound 8, (2R,3S)-2-(4-(cyclopentylamino)phenyl)-1-((3,5-dimethylisoxazol-4-yl)sulfonyl)-N-(4-methyl-3-(trifluoromethyl)phenyl)piperidine-3-carboxamide] | 2000 to 5000 | 2000 to 10000
14 | Cc1ccc(S(=O)(=O)N2CCC[C@H](C(=O)Nc3ccc(C)c(C(F)(F)F)c3)[C@@H]2c2ccc(NC3CCCC3)cc2)c(C)c1 [Compound 9, (2R,3S)-2-(4-(cyclopentylamino)phenyl)-1-((2,4-dimethylphenyl)sulfonyl)-N-(4-methyl-3-(trifluoromethyl)phenyl)piperidine-3-carboxamide] | 2000 to 5000 | 2000 to 10000
15 | Cc1ccc(C)c(S(=O)(=O)N2CCC[C@H](C(=O)Nc3ccc(C)c(C(F)(F)F)c3)[C@@H]2c2ccc(NC3CCCC3)cc2)c1 [Compound 10, (2R,3S)-2-(4-(cyclopentylamino)phenyl)-1-((2,5-dimethylphenyl)sulfonyl)-N-(4-methyl-3-(trifluoromethyl)phenyl)piperidine-3-carboxamide] | 500 to 2000 | > 10000
16 | Cc1ccc(NC(=O)[C@H]2CCCN(S(=O)(=O)c3c(C)cccc3C)[C@H]2c2ccc(NC3CCCC3)cc2)cc1C(F)(F)F [Compound 11, (2R,3S)-2-(4-(cyclopentylamino)phenyl)-1-((2,6-dimethylphenyl)sulfonyl)-N-(4-methyl-3-(trifluoromethyl)phenyl)piperidine-3-carboxamide] | 500 to 2000 | 2000 to 10000
17 | Cc1cc(C)c(S(=O)(=O)N2CCC[C@H](C(=O)Nc3ccc(C)c(C(F)(F)F)c3)[C@@H]2c2ccc(NC3CCCC3)cc2)c(C)c1 [Compound 13, (2R,3S)-2-(4-(cyclopentylamino)phenyl)-1-(mesitylsulfonyl)-N-(4-methyl-3-(trifluoromethyl)phenyl)piperidine-3-carboxamide] | 2000 to 5000 | 2000 to 10000
18 | Cc1ccc(NC(=O)[C@H]2CCCN(S(=O)(=O)c3ccccc3[N+](=O)[O-])[C@H]2c2ccc(NC3CCCC3)cc2)cc1C(F)(F)F [Compound 14, (2R,3S)-2-(4-(cyclopentylamino)phenyl)-N-(4-methyl-3-(trifluoromethyl)phenyl)-1-((2-nitrophenyl)sulfonyl)piperidine-3-carboxamide] | 2000 to 5000 | 2000 to 10000
19 | Cc1ccc(NC(=O)[C@H]2CCCN(S(=O)(=O)c3ccc(F)cc3C)[C@H]2c2ccc(NC3CCCC3)cc2)cc1C(F)(F)F [Compound 15, (2R,3S)-2-(4-(cyclopentylamino)phenyl)-1-((4-fluoro-2-methylphenyl)sulfonyl)-N-(4-methyl-3-(trifluoromethyl)phenyl)piperidine-3-carboxamide] | 2000 to 5000 | 2000 to 10000
20 | Cc1ccc(NC(=O)[C@H]2CCCN(S(=O)(=O)c3cccc(Cl)c3C)[C@H]2c2ccc(NC3CCCC3)cc2)cc1C(F)(F)F [Compound 16, (2R,3S)-1-((3-chloro-2-methylphenyl)sulfonyl)-2-(4-(cyclopentylamino)phenyl)-N-(4-methyl-3-(trifluoromethyl)phenyl)piperidine-3-carboxamide] | 2000 to 5000 | > 10000

Reference: US20240043439A1, “COMPOUNDS AS C5AR INHIBITORS” (Kira Pharmaceuticals (Suzhou) Ltd., priority 2020, published 2024)
